Values joined by “and” are separate entries in the source; they are usually repeats but may differ in a detail not shown here. Identical values can stand only once.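 Assay format: 96-well plates, 48-hour exposure. GI50 = concentration required for 50% inhibition of growth. TGI: concentration producing complete growth inhibition.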
Experiments:
Assay in all cases: DTP human tumour cell line panel, 48 h
[1] = system: PC-3 prostate
[2] = system: MCF7 breast
[3] = system: SK-MEL-28 melanoma
[4] = system: DU-145 prostate
[5] = system: OVCAR-5 ovarian
[6] = system: HT29 colon
[7] = system: M14 melanoma
[8] = system: SK-MEL-5 melanoma
[9] = system: RXF 393 renal
[10] = system: SK-MEL-2 melanoma
[11] = system: BT-549 breast

## CN1CCCC(C(=O)OCC(=O)C2(O)CCC3C4CCC5=CC(=O)CCC5(C)C4C(O)CC32C)C1 (centres undefined)
[1]
  TGI: 30.7 µM
[2]
  TGI: > 65.6 µM
[3]
  TGI: 35.4 µM
[4]
  TGI: 45.1 µM
[5]
  TGI: 52.2 µM
[6]
  TGI: 27 µM
[7]
  TGI: 59.3 µM
[8]
  TGI: 41.3 µM
[9]
  TGI: 23.1 µM
[10]
  TGI: 39.3 µM
[11]
  TGI: 33.6 µM

## O=C(O)CO/N=C1/C(c2c(O)[nH]c3ccccc23)=Nc2ccccc21
[1]
  TGI: > 100 µM
[2]
  TGI: > 100 µM
[3]
  TGI: > 100 µM
[4]
  TGI: > 100 µM
[5]
  TGI: > 100 µM
[6]
  TGI: > 100 µM
[7]
  TGI: > 100 µM
[8]
  TGI: 80 µM
[9]
  TGI: 52.7 µM
[10]
  TGI: 80.1 µM
[11]
  TGI: > 100 µM

## CCN(CC)CCC(=O)O[C@H]1CC[C@H](CC(C)[C@H]2CC(=O)C(C)C=C(C)[C@H](OC(=O)CCN(CC)CC)C(OC)C(=O)[C@@H](C)CC(C)/C=C/C=C/C=C(C)C(OC)CC3CC[C@H](C)[C@](O)(O3)C(=O)C(=O)N3CCCCC3C(=O)O2)CC1OC (some centres undefined)
[1]
  GI50: 1.22 µM
  TGI: 2.57 µM and 2.4 µM
[2]
  TGI: 3.54 µM and 3.78 µM
[3]
  TGI: 1.95 µM
[4]
  GI50: 1.17 µM
  TGI: > 10 µM and 8.38 µM
[5]
  GI50: 1.63 µM
  TGI: 8.16 µM and 7.73 µM
[6]
  GI50: 1.07 µM
  TGI: 2.57 µM and 2.44 µM
[7]
  GI50: 0.871 µM
  TGI: 2.62 µM and 2.2 µM
[8]
  GI50: 0.0401 µM
  TGI: 1.85 µM and 2.16 µM
[9]
  TGI: 2.2 µM
[10]
  GI50: 0.359 µM
  TGI: 1.91 µM
[11]
  TGI: 0.946 µM

## O=C(O)CCc1nc2cc3ccccc3cc2[nH]c1=O
[1]
  TGI: > 100 µM
[2]
  TGI: > 100 µM
[3]
  TGI: > 100 µM
[4]
  TGI: > 100 µM
[5]
  TGI: > 100 µM
[6]
  TGI: > 100 µM
[7]
  TGI: > 100 µM
[8]
  TGI: > 100 µM
[9]
  TGI: > 100 µM
[10]
  TGI: > 100 µM
[11]
  TGI: > 100 µM

## S=C(Nc1cccc(C2(N3CCCCC3)CCCCC2)c1)Nc1cccc(C2(N3CCCCC3)CCCCC2)c1
[1]
  TGI: > 100 µM
[2]
  TGI: 64.1 µM
[3]
  TGI: 35.3 µM
[4]
  TGI: 80.8 µM
[5]
  TGI: > 100 µM
[6]
  TGI: 66.1 µM
[7]
  TGI: 35.5 µM
[8]
  TGI: 33.6 µM
[9]
  TGI: 29.7 µM
[10]
  TGI: 33.3 µM
[11]
  TGI: > 100 µM

## C=CC[C@H]1[C@H](O[Si](C)(C)C(C)(C)C)C=CC(=O)[C@@H]1CC(=O)OCC
[1]
  TGI: 21.3 µM
[2]
  TGI: 23.7 µM
[3]
  TGI: 34.6 µM
[4]
  TGI: 32.8 µM
[5]
  TGI: 27.1 µM
[6]
  TGI: 21.2 µM
[7]
  TGI: 25.3 µM
[8]
  TGI: 22.9 µM
[9]
  TGI: 25.7 µM
[10]
  TGI: 28.1 µM
[11]
  TGI: 30.3 µM

## COC(=O)CCC1(O)C=CC(=O)C=C1
[1]
  TGI: > 100 µM
[2]
  TGI: > 100 µM
[3]
  TGI: 60.9 µM
[4]
  TGI: > 100 µM
[5]
  TGI: > 100 µM
[6]
  TGI: > 100 µM
[7]
  TGI: > 100 µM
[8]
  TGI: > 100 µM
[9]
  TGI: 61.5 µM
[10]
  TGI: > 100 µM
[11]
  TGI: > 100 µM

## CC/C=C/C(/C=C/C[C@]1(CC)C[C@H](CC)[C@H](CC(=O)O)OO1)CC (some centres undefined)
[1]
  TGI: 3.69 µM
[2]
  TGI: 6.62 µM
[3]
  TGI: 7.41 µM
[4]
  TGI: 4.36 µM
[5]
  TGI: 7.61 µM
[6]
  TGI: 3.98 µM
[7]
  TGI: 26.5 µM
[8]
  TGI: 10.1 µM
[9]
  TGI: 6.3 µM
[10]
  TGI: 9.11 µM
[11]
  TGI: 18.3 µM

## Cc1ccc(N2C(=O)C(=O)N(/N=C3\C(=O)Nc4ccccc43)C2=S)cc1
[1]
  TGI: > 100 µM
[2]
  TGI: > 100 µM
[3]
  TGI: > 100 µM
[4]
  TGI: > 100 µM
[5]
  TGI: > 100 µM
[6]
  TGI: > 100 µM
[7]
  TGI: > 100 µM
[8]
  TGI: > 100 µM
[9]
  TGI: > 100 µM
[10]
  TGI: > 100 µM
[11]
  TGI: > 100 µM

## CC(C)(CN)SCc1ccccc1
[1]
  TGI: > 100 µM
[2]
  TGI: > 100 µM
[3]
  TGI: > 100 µM
[4]
  TGI: > 100 µM
[5]
  TGI: > 100 µM
[6]
  TGI: > 100 µM
[7]
  TGI: > 100 µM
[8]
  TGI: > 100 µM
[9]
  TGI: > 100 µM
[10]
  TGI: > 100 µM
[11]
  TGI: > 100 µM

## COC(=O)CCC(C)[C@H]1CCC2C3C(C[C@H](OC(C)=O)[C@@]21C)[C@@]1(C)CCC2(C[C@H]1C[C@H]3OC(C)=O)OOC1(CCCCC1)OO2 (some centres undefined)
[1]
  TGI: > 100 µM
[2]
  TGI: > 100 µM
[3]
  TGI: > 100 µM
[4]
  TGI: > 100 µM
[5]
  TGI: > 100 µM
[6]
  TGI: > 100 µM
[7]
  TGI: > 100 µM
[8]
  TGI: > 100 µM
[9]
  TGI: > 100 µM
[10]
  TGI: > 100 µM
[11]
  TGI: > 100 µM

## Cc1cn2c(/C=C3/C(=O)Nc4ccccc43)c(C)nc2s1
[1]
  TGI: 6.99 µM
[2]
  TGI: > 100 µM
[3]
  TGI: > 100 µM
[4]
  TGI: > 100 µM
[5]
  TGI: > 100 µM
[6]
  TGI: 15.5 µM
[7]
  TGI: > 100 µM
[8]
  TGI: 14.6 µM
[9]
  TGI: > 100 µM
[10]
  TGI: 5.57 µM
[11]
  TGI: > 100 µM

## COC1C(OC(N)=O)C(O)C(Oc2ccc3c(O)c(NC(=O)c4ccc(O)c(CC=C(C)C)c4)c(=O)oc3c2C)OC1(C)C (centres undefined)
[1]
  TGI: > 100 µM
[2]
  TGI: > 100 µM
[3]
  TGI: > 100 µM
[4]
  TGI: > 100 µM
[5]
  TGI: > 100 µM
[6]
  TGI: > 100 µM
[7]
  TGI: > 100 µM
[8]
  TGI: > 100 µM
[9]
  TGI: > 100 µM
[10]
  TGI: > 100 µM
[11]
  TGI: > 100 µM

## Nc1nc(NCCOCP(=O)(O)O)c(N)c(=O)[nH]1
[1]
  TGI: > 100 µM
[2]
  TGI: > 100 µM
[3]
  TGI: > 100 µM
[4]
  TGI: > 100 µM
[5]
  TGI: > 100 µM
[6]
  TGI: > 100 µM
[7]
  TGI: > 100 µM
[8]
  TGI: > 100 µM
[9]
  TGI: > 100 µM
[10]
  TGI: > 100 µM
[11]
  TGI: > 100 µM

## C(=N/NC1=NCCN1)/c1c2ccccc2c(/C=N\NC2=NCCN2)c2ccccc12
[1]
  GI50: 0.0776 µM
  TGI: 0.348 µM and 0.422 µM
[2]
  TGI: 0.788 µM and 3.14 µM and 3.88 µM
[3]
  TGI: 1.01 µM and 1.08 µM and 0.685 µM
[4]
  GI50: 0.0878 µM
  TGI: 0.623 µM and 3.43 µM
[5]
  TGI: 1.38 µM and 0.95 µM and 0.793 µM
[6]
  TGI: 1.36 µM and 1.41 µM and 2.04 µM
[7]
  GI50: 0.25 µM
  TGI: 0.568 µM and 0.697 µM
[8]
  TGI: 0.214 µM and 0.896 µM and 0.761 µM
[9]
  TGI: 0.829 µM and 2.08 µM and 0.596 µM
[10]
  TGI: 0.271 µM and 0.747 µM and 0.422 µM
[11]
  GI50: 0.244 µM and 0.096 µM
  TGI: 0.892 µM and 0.347 µM

## CC(=O)/C(=C(/Br)I)c1ccccc1
[1]
  TGI: 32.2 µM
[2]
  TGI: 19.1 µM
[3]
  TGI: 26.5 µM
[4]
  TGI: 31.4 µM
[5]
  TGI: 32.1 µM
[6]
  TGI: 13.8 µM
[7]
  TGI: 21.3 µM
[8]
  TGI: 30.8 µM
[9]
  TGI: 13.3 µM
[10]
  TGI: 15.7 µM
[11]
  TGI: 6.33 µM

## CCOC(=O)c1ccc(Nc2cnc3ccc(C(F)(F)F)cc3n2)cc1
[1]
  TGI: 55.5 µM
[2]
  TGI: 67.1 µM
[3]
  TGI: 43 µM
[4]
  TGI: 47.7 µM
[5]
  TGI: 74.7 µM
[6]
  TGI: 24.1 µM
[7]
  TGI: > 100 µM
[8]
  TGI: 31.2 µM
[9]
  TGI: 25.8 µM
[10]
  TGI: 33.8 µM
[11]
  TGI: 34 µM

## Cn1c(=O)sc2cc(C(=S)N3CCN(c4ccccc4)CC3)ccc21
[1]
  TGI: > 100 µM
[2]
  TGI: > 100 µM
[3]
  TGI: > 100 µM
[4]
  TGI: > 100 µM
[5]
  TGI: > 100 µM
[6]
  TGI: > 100 µM
[7]
  TGI: > 100 µM
[8]
  TGI: > 100 µM
[9]
  TGI: > 100 µM
[10]
  TGI: > 100 µM
[11]
  TGI: > 100 µM

From PubChem BioAssay (NCI)
